# Measurements reported in US12258339B2, “Macrocyclic complexes of alpha-emitting radionuclides and their use in targeted radiotherapy of cancer” (Cornell University, priority 2018, dated 2025).
# Assay: In vivo biodistribution of ^225Ac complexes of macropa and DOTA and of ^225Ac(NO3)3 in mice
# Parameters: species or system C57BL/6 mice
# Description: In Vivo Biodistribution of ^225Ac Complexes of Macropa and DOTA. All experiments were approved by the Institutional Animal Care Committee (IACC) of the University of British Columbia and were performed in accordance with the Canadian Council on Animal Care Guidelines. A total of 9 female C57BL/6 mice (6-8 weeks old, 20-25 g) were used for the biodistribution study of each radiometal complex, n=3 for each time point.
# Macropa (100 μL of a 1 mg/mL solution in NH4OAc) was diluted with 387 μL of NH4OAc (1 M, pH 7), and an aliquot (203 μL) of ^225Ac(NO3)3 (˜157 kBq) was then added; the pH of this solution was adjusted to 6.5-7 by the addition of 1 M NaOH (210 μL, trace metal grade). After 5 min at ambient temperature, the reaction solution was analyzed by TLC (0.4 M pH 4 sodium citrate as the eluent), which confirmed >95% radiochemical yield. The reaction was allowed to proceed overnight, and the radiochemical yield was again confirmed to be >95% the following morning. At this time, mice were anesthetized by 2% isoflurane, and approximately 100 μL (10-15 kBq) of the [^225Ac(macropa)]^+ complex were injected into the tail vein of each mouse. After injection, mice were allowed to recover and roam freely in their cages, and were euthanized by CO2 inhalation at 15 min, 1 h, or 5 h (n=3 at each time point) post-injection. Blood was collected by cardiac puncture and placed into an appropriate test tube for scintillation counting. Tissues collected included heart, liver, kidneys, lungs, small intestine, large intestine, brain, bladder, spleen, stomach, pancreas, bone, thyroid, tail, urine, and feces. Tissues were weighed and then counted with a calibrated gamma counter (Packard, Cobra II model 5002) using three energy windows: 60-120 keV (window A), 180-260 keV (window B), and 400-480 keV (window C). Counting was performed both immediately after sacrifice and after 7 days; counts were decay corrected from the time of injection and then converted to the percentage of injected dose (% ID) per gram of tissue (% ID/g). […]
# The biodistribution studies of [^225Ac(DOTA)]^− and ^225Ac(NO3)3 were carried out as described above for [^225Ac(macropa)]^+, with the following modifications. [^225Ac(DOTA)^− was prepared by adding ^225Ac(NO3)3 (338 μL, 1.1 MBq) to a solution of DOTA (100 μg, 20 mg/mL in H2O) in NH4OAc (467 μL, 0.15 M, pH 7). The pH of the solution was adjusted to 7 using NH4OAc (150 μL, 1 M, pH 7) and the solution was heated at 85° C. for 45 min. RCY>99% was confirmed by TLC as described above. [^225Ac(DOTA)]^− was diluted with saline to a final concentration of 0.05 MBq/100 μL, and 100 μL were injected into each mouse. ^225Ac(NO3)3 (˜58 μL, 0.4 MBq) was diluted and injected in the same manner as [^225Ac(DOTA)]^−. One mouse that was to be euthanized at the 5 h time point in the [^225Ac(DOTA)]^− study died shortly after injection. In the same manner, one mouse that was to be euthanized at the 1 h time point in the ^225Ac(NO3)3 study died.
# The in vivo stability [^225Ac(macropa)]^+ was examined by comparing its biodistribution to those of ^225Ac(NO3)3 and [^225Ac(DOTA)]^−. C57BL/6 mice were injected via tail vein with 10-50 kBq of each radiometal complex and were sacrificed after 15 min, 1 h, or 5 h. The amount of ^225Ac retained in each organ was quantified by gamma counting and reported as the percent of injected dose per gram of tissue (% ID/g). The results of these studies are compiled in Tables 1-3. Inadequate stability of an ^225Ac complex leading to the loss of radioisotope in vivo is manifested by the accumulation of ^225Ac in the liver, spleen, and bone of mice.^[11,12,32] […] The biodistribution profile of [^225Ac(macropa)]^+ (FIG. 3B) differs markedly from that of ^225Ac(NO3)3. […] Its biodistribution profile was similar to that of [^225Ac(DOTA)]^− (FIG. 3C), which has been previously shown to retain ^225Ac in vivo.^[7]
# [1] = 15 min after i.v. injection, energy window A (60-120 keV)
# [2] = 15 min after i.v. injection, energy window C (400-480 keV)
# [3] = 1 h after i.v. injection, energy window A (60-120 keV)
# [4] = 1 h after i.v. injection, energy window B (180-260 keV)
# [5] = 1 h after i.v. injection, energy window C (400-480 keV)
# [6] = 5 h after i.v. injection, energy window A (60-120 keV)
# [7] = 5 h after i.v. injection, energy window B (180-260 keV)
# [8] = 5 h after i.v. injection, energy window C (400-480 keV)
compound,measurement,setting,value
O=C([O-])c1cccc(CN2CCOCCOCCN(Cc3cccc(C(=O)[O-])n3)CCOCCOCC2)n1.[225Ac+3] [[^225Ac(macropa)]^+],Organ distribution: brain,[1],0.26 % ID/g
same,Organ distribution: feces,[1],0.91 % ID/g
same,Organ distribution: large intestines,[1],2.40 % ID/g
same,Organ distribution: brain,"15 min after i.v. injection, energy window B (180-260 keV)",0.23 % ID/g
same,Organ distribution: brain,[2],0.17 % ID/g
same,Organ distribution: pancreas,[2],3.00 % ID/g
same,Organ distribution: blood,[3],0.40 % ID/g
same,Organ distribution: bone (femur + joint),[3],0.31 % ID/g
same,Organ distribution: brain,[3],0.12 % ID/g
same,Organ distribution: feces,[3],0.28 % ID/g
same,Organ distribution: heart,[3],0.31 % ID/g
same,Organ distribution: large intestines,[3],0.36 % ID/g
same,Organ distribution: liver,[3],0.75 % ID/g
same,Organ distribution: lungs,[3],0.51 % ID/g
same,Organ distribution: pancreas,[3],0.19 % ID/g
same,Organ distribution: small intestines,[3],1.10 % ID/g
same,Organ distribution: spleen,[3],0.51 % ID/g
same,Organ distribution: stomach,[3],0.41 % ID/g
same,Organ distribution: blood,[4],0.39 % ID/g
same,Organ distribution: bone (femur + joint),[4],0.17 % ID/g
same,Organ distribution: brain,[4],0.12 % ID/g
same,Organ distribution: feces,[4],0.27 % ID/g
same,Organ distribution: heart,[4],0.20 % ID/g
same,Organ distribution: large intestines,[4],0.22 % ID/g
same,Organ distribution: liver,[4],0.70 % ID/g
same,Organ distribution: lungs,[4],0.54 % ID/g
same,Organ distribution: pancreas,[4],0.12 % ID/g
same,Organ distribution: small intestines,[4],0.94 % ID/g
same,Organ distribution: spleen,[4],0.23 % ID/g
same,Organ distribution: stomach,[4],0.33 % ID/g
same,Organ distribution: thyroids,[4],0.10 % ID/g
same,Organ distribution: bladder,[5],9.00 % ID/g
same,Organ distribution: blood,[5],0.54 % ID/g
same,Organ distribution: bone (femur + joint),[5],0.70 % ID/g
same,Organ distribution: brain,[5],0.23 % ID/g
same,Organ distribution: feces,[5],0.69 % ID/g
same,Organ distribution: heart,[5],0.23 % ID/g
same,Organ distribution: large intestines,[5],0.79 % ID/g
same,Organ distribution: lungs,[5],0.84 % ID/g
same,Organ distribution: pancreas,[5],0.43 % ID/g
same,Organ distribution: spleen,[5],0.48 % ID/g
same,Organ distribution: stomach,[5],0.17 % ID/g
same,Organ distribution: blood,[6],0.01 % ID/g
same,Organ distribution: bone (femur + joint),[6],0.05 % ID/g
same,Organ distribution: brain,[6],0.02 % ID/g
same,Organ distribution: heart,[6],0.10 % ID/g
same,Organ distribution: kidneys,[6],0.74 % ID/g
same,Organ distribution: large intestines,[6],0.49 % ID/g
same,Organ distribution: liver,[6],0.39 % ID/g
same,Organ distribution: lungs,[6],0.01 % ID/g
same,Organ distribution: pancreas,[6],0.10 % ID/g
same,Organ distribution: small intestines,[6],0.29 % ID/g
same,Organ distribution: spleen,[6],0.11 % ID/g
same,Organ distribution: stomach,[6],0.01 % ID/g
same,Organ distribution: tail,[6],0.14 % ID/g
same,Organ distribution: thyroids,[6],0.10 % ID/g
same,Organ distribution: blood,[7],0.00 % ID/g
same,Organ distribution: bone (femur + joint),[7],0.02 % ID/g
same,Organ distribution: brain,[7],−0.01 % ID/g
same,Organ distribution: heart,[7],−0.04 % ID/g
same,Organ distribution: kidneys,[7],0.78 % ID/g
same,Organ distribution: large intestines,[7],0.45 % ID/g
same,Organ distribution: liver,[7],0.36 % ID/g
same,Organ distribution: lungs,[7],−0.05 % ID/g
same,Organ distribution: pancreas,[7],−0.12 % ID/g
same,Organ distribution: small intestines,[7],0.29 % ID/g
same,Organ distribution: spleen,[7],0.09 % ID/g
same,Organ distribution: stomach,[7],0.04 % ID/g
same,Organ distribution: tail,[7],0.13 % ID/g
same,Organ distribution: blood,[8],0.04 % ID/g
same,Organ distribution: bone (femur + joint),[8],0.08 % ID/g
same,Organ distribution: brain,[8],−0.01 % ID/g
same,Organ distribution: heart,[8],0.28 % ID/g
same,Organ distribution: large intestines,[8],0.68 % ID/g
same,Organ distribution: liver,[8],0.55 % ID/g
same,Organ distribution: lungs,[8],0.15 % ID/g
same,Organ distribution: pancreas,[8],0.13 % ID/g
same,Organ distribution: small intestines,[8],0.42 % ID/g
same,Organ distribution: spleen,[8],0.43 % ID/g
same,Organ distribution: stomach,[8],0.13 % ID/g
same,Organ distribution: tail,[8],0.28 % ID/g
same,blood clearance and excretion (in words),"i.v. injection, up to 5 h",rapidly cleared from mice
same,organ accumulation (in words),"i.v. injection, up to 5 h",did not accumulate in any organ
